Results reported in ChEMBL document CHEMBL3046853, “Synthesis, antimicrobial evaluation, ot-QSAR and mt-QSAR studies of 2-amino benzoic acid derivatives” (2012).
The source made the active and inactive calls. No cut-off for these calls is given here.

Columns and labels:
Staphylococcus aureus [1] = assay: Antibacterial activity against Staphylococcus aureus after 24 hr by serial dilution technique; assay type: functional
Staphylococcus aureus [2] = assay: Bactericidal activity against Staphylococcus aureus; assay type: functional, organism-based
Bacillus subtilis [3] = assay: Bactericidal activity against Bacillus subtilis; assay type: functional, organism-based
Aspergillus niger [4] = assay: Fungicidal activity against Aspergillus niger after 7 days by serial dilution technique; assay type: functional, organism-based
Escherichia coli [5] = assay: Bactericidal activity against Escherichia coli; assay type: functional, organism-based
Candida albicans [6] = assay: Fungicidal activity against Candida albicans; assay type: functional, organism-based
Candida albicans [7] = assay: Antifungal activity against Candida albicans after 2 days by serial dilution technique; assay type: functional
Aspergillus niger [8] = assay: Antifungal activity against Aspergillus niger after 7 days by serial dilution technique; assay type: functional
Bacillus subtilis [9] = assay: Antibacterial activity against Bacillus subtilis after 24 hr by serial dilution technique; assay type: functional
Escherichia coli [10] = assay: Antibacterial activity against Escherichia coli after 24 hr by serial dilution technique; assay type: functional

Row | SMILES | -logMIC (Staphylococcus aureus [1]) | Activity (Staphylococcus aureus [2]) | Activity (Bacillus subtilis [3]) | Activity (Aspergillus niger [4]) | Activity (Escherichia coli [5]) | Activity (Candida albicans [6]) | -logMIC (Candida albicans [7]) | -logMIC (Aspergillus niger [8]) | -logMIC (Bacillus subtilis [9]) | -logMIC (Escherichia coli [10])
1 | Nc1ccccc1C(=O)Oc1cccc2cccnc12 | 1.93 | Active | Active | Active | Active | Active | 1.63 | 1.63 | 1.93 | 1.8
2 | Cc1ccc(NC(=O)c2ccccc2N)c(C)c1 | 1.28 | Active | Active | Active | Active | Active | 1.28 | 1.28 | 2.19 | 1.28
3 | Nc1ccccc1C(=O)Nc1ccccc1F | 1.27 | Active | Active | Active | Active | Active | 1.27 | 1.27 | 2.17 | 1.27
4 | CCN(CC)C(=O)c1ccccc1N | 1.19 | Active | Active | Active | Active | Active | 1.19 | 1.49 | 2.09 | 1.19
5 | Nc1ccccc1C(=O)Nc1ccc2ccccc2c1 | 1.32 | Active | Active | Active | Active | Active | 1.32 | 1.62 | 2.23 | 1.62
6 | CC(C)CCOC(=O)c1ccccc1N [ISOPENTYL 2-AMINOBENZOATE] | 1.22 | Active | Active | Active | Active | Active | 1.22 | 1.22 | 2.12 | 1.82
7 | Cc1ccc(NC(=O)c2ccccc2N)cc1 | 1.26 | Active | Active | Active | Active | Active | 1.26 | 1.26 | 2.16 | 1.56
8 | CCCCOC(=O)c1ccccc1N [BUTYL 2-AMINOBENZOATE] | 1.2 | Active | Active | Active | Active | Active | 1.19 | 1.3 | 2.09 | 1.79
9 | CN(C)C(=O)c1ccccc1N | 0.82 | Active | Active | Active | Active | Active | 0.82 | 1.42 | 2.02 | 1.42
10 | Nc1ccccc1C(=O)N(c1ccccc1)c1ccccc1 | 1.36 | Active | Active | Active | Active | Active | 1.36 | 1.66 | 2.27 | 1.66
11 | CC(C)COC(=O)c1ccccc1N [ISOBUTYL 2-AMINOBENZOATE] | 0.89 | Active | Active | Active | Active | Active | 0.59 | 1.06 | 1.79 | 1.51
12 | CCn1cc(C(=O)O)c(=O)c2cc(F)c(N3CCNCC3)cc21 [NORFLOXACIN] | 3.33 | – | – | – | – | – | – | – | 3.33 | 3.33
13 | NC(=O)c1ccccc1N [ANTHRANILAMIDE] | 1.04 | Active | Active | Active | Active | Active | 1.04 | 1.64 | 1.94 | 1.04
14 | Nc1ccccc1C(=O)N1CCOCC1 [(2-AMINOPHENYL)(MORPHOLINO)METHANONE] | 1.22 | Active | Active | Active | Active | Active | 1.22 | 1.22 | 1.22 | 1.52
15 | Nc1ccccc1C(=O)Nc1ccccc1 | 1.23 | Active | Active | Active | Active | Active | 1.23 | 1.23 | 2.13 | 1.23
16 | COc1ccccc1NC(=O)c1ccccc1N | 1.29 | Active | Active | Active | Active | Active | 1.29 | 1.29 | 1.59 | 1.2
17 | OC(Cn1cncn1)(Cn1cncn1)c1ccc(F)cc1F [FLUCONAZOLE] | – | – | – | – | – | – | 2.64 | 2.64 | – | –
18 | CCCCNC(=O)c1ccccc1N | 1.2 | Active | Active | Active | Active | Active | 1.19 | 1.2 | 1.49 | 1.19
19 | Nc1ccccc1C(=O)Nc1cccc(Cl)c1 | 1.3 | Active | Active | Active | Active | Active | 1.3 | 1.3 | 2.2 | 1.6
20 | COC(=O)c1ccccc1N [METHYL ANTHRANILATE] | 1.08 | Active | Active | Active | Active | Active | 1.08 | 1.08 | 1.99 | 1.69
21 | Cc1ccc(C)c(NC(=O)c2ccccc2N)c1 | 1.28 | Active | Active | Active | Active | Active | 1.3 | 1.28 | 2.19 | 1.28
22 | Cc1ccccc1NC(=O)c1ccccc1N | 1.26 | Active | Active | Active | Active | Active | 1.56 | 1.56 | 1.86 | 1.26
